In patent publication US9695155B2, “Herbicidal substituted pyrimidinyloxy benzene compounds” (E. I. DU PONT DE NEMOURS AND COMPANY, priority 2013, dated 2017):

What was measured:
[1] = tested on: large (Lg) crabgrass; assay: Test A preemergence; type: in vivo, Digitaria sanguinalis; conditions: Digitaria sanguinalis, pre-emergence, 240 h
How it was run: (§1)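 Compounds in non-phytotoxic solvent with surfactant applied as soil spray preemergence, or postemergence to plants 2-10 cm at one- to two-leaf stage, in loam/sand. After approximately 10 days in greenhouse, injury rated visually versus untreated controls, 0 (no effect) to 100 (complete control).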

[2] = tested on: pigweed; assay: Test A preemergence; type: in vivo, Amaranthus retroflexus; conditions: Amaranthus retroflexus, pre-emergence
How it was run: as §1

[3] = tested on: velvetleaf; assay: Test A preemergence; type: in vivo, Abutilon theophrasti
How it was run: as §1

[4] = tested on: large (Lg) crabgrass; assay: Test A postemergence; type: in vivo, Digitaria sanguinalis; conditions: Digitaria sanguinalis, post-emergence, 240 h
How it was run: as §1

[5] = tested on: morningglory; assay: Test A postemergence; type: in vivo, Ipomoea spp.; conditions: Ipomoea, post-emergence, 240 h
How it was run: as §1

[6] = tested on: pigweed; assay: Test A postemergence; type: in vivo, Amaranthus retroflexus; conditions: Amaranthus retroflexus, post-emergence
How it was run: as §1

[7] = tested on: velvetleaf; assay: Test A postemergence; type: in vivo, Abutilon theophrasti; conditions: Abutilon theophrasti, post-emergence, 240 h
How it was run: as §1

[8] = tested on: corn; assay: Test A postemergence; type: in vivo, Zea mays; conditions: Zea mays, post-emergence, 240 h
How it was run: as §1

[9] = tested on: Italian ryegrass; assay: Test C postemergence; type: in vivo, Lolium multiflorum; conditions: Lolium multiflorum, post-emergence
How it was run: (§2)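 Visual injury score versus untreated controls, 0 = no effect, 100 = complete control, taken 13 to 15 days after treatment in the greenhouse. Pre-emergence pots held loam/sand; post-emergence plants grew in sphagnum peat/vermiculite mix and were sprayed at the 1- to 4-leaf stage.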

[10] = tested on: corn; assay: Test C postemergence; type: in vivo, Zea mays; conditions: Zea mays, post-emergence
How it was run: as §2

[11] = tested on: giant foxtail; assay: Test C postemergence; type: in vivo, Setaria faberii; conditions: Setaria faberi, post-emergence
How it was run: as §2

[12] = tested on: johnsongrass; assay: Test C postemergence; type: in vivo, Sorghum halepense; conditions: Sorghum halepense, post-emergence
How it was run: as §2

[13] = tested on: pigweed; assay: Test C postemergence; type: in vivo, Amaranthus retroflexus; conditions: Amaranthus retroflexus, post-emergence
How it was run: as §2

[14] = tested on: soybean; assay: Test C postemergence; type: in vivo, Glycine max; conditions: Glycine max, post-emergence
How it was run: as §2

[15] = tested on: barnyardgrass; assay: Test C postemergence; type: in vivo, Echinochloa crus-galli; conditions: Echinochloa crus-galli, post-emergence
How it was run: as §2

[16] = tested on: waterhemp; assay: Test C postemergence; type: in vivo, Amaranthus rudis; conditions: Amaranthus tuberculatus, post-emergence
How it was run: as §2

[17] = tested on: kochia; assay: Test C postemergence; type: in vivo, Kochia scoparia; conditions: Bassia scoparia, post-emergence
How it was run: as §2

[18] = tested on: wild oat; assay: Test C postemergence; type: in vivo, Avena fatua; conditions: Avena fatua, post-emergence
How it was run: as §2

[19] = 125 g ai/ha, 0 to 100 scale where 0 is no effect and 100 is complete control, read-out: Plant response rating, Crabgrass, Large
[20] = 125 g ai/ha, 0 to 100 scale where 0 is no effect and 100 is complete control, read-out: Plant response rating, Pigweed
[21] = 125 g ai/ha, 0 to 100 scale where 0 is no effect and 100 is complete control
[22] = Postemergence, 31 g ai/ha, scale 0 to 100 (0 no effect, 100 complete control), 13 to 15 days
[23] = Postemergence, 62 g ai/ha, scale 0 to 100 (0 no effect, 100 complete control)

N#Cc1cccc(Oc2ncc(Cl)cn2)c1-n1cc(Br)cn1 [Compound 52, 2-(4-bromo-1H-pyrazol-1-yl)-3-[(5-chloro-2-pyrimidinyl)oxy]benzonitrile]
80%: pest or weed control at 125 g/ha ([13]; 125 g ai/ha, postemergence, read-out: Plant response rating (0 to 100), Pigweed)
100%: pest or weed control at 125 g/ha [1, 19] | pest or weed control at 500 g/ha ([1]; 500 g ai/ha, 0 to 100 scale, 0 no effect, 100 complete control, approx. 10 days, read-out: Crabgrass, Large plant response rating) | pest or weed control at 125 g/ha [2, 20] | pest or weed control at 500 g/ha ([2]; 240 h, 500 g ai/ha, 0 to 100 scale, 0 no effect, 100 complete control, approx. 10 days, read-out: Pigweed plant response rating) | pest or weed control at 500 g/ha ([3]; Abutilon theophrasti, pre-emergence, 240 h, 500 g ai/ha, 0 to 100 scale, 0 no effect, 100 complete control, approx. 10 days, read-out: Velvetleaf plant response rating) | pest or weed control at 500 g/ha ([4]; 500 g ai/ha, 0 to 100 scale, 0 no effect, 100 complete control, read-out: Plant response rating Crabgrass, Large) | pest or weed control at 125 g/ha ([5]; 125 g ai/ha, 0 to 100 scale where 0 is no effect and 100 is complete control, read-out: Plant response rating, Morningglory) | pest or weed control at 500 g/ha ([5]; 500 g ai/ha, 0 to 100 scale, 0 no effect, 100 complete control, read-out: Plant response rating Morningglory) | pest or weed control at 125 g/ha [6, 20] | pest or weed control at 500 g/ha ([6]; 240 h, 500 g ai/ha, 0 to 100 scale, 0 no effect, 100 complete control, read-out: Plant response rating Pigweed) | pest or weed control at 125 g/ha ([7]; 125 g ai/ha, 0 to 100 scale where 0 is no effect and 100 is complete control, read-out: Plant response rating, Velvetleaf) | pest or weed control at 500 g/ha ([7]; 500 g ai/ha, 0 to 100 scale, 0 no effect, 100 complete control, read-out: Plant response rating Velvetleaf)
50%: pest or weed control at 62 g/ha ([11]; Postemergence, 62 g ai/ha, scale 0 to 100 (0 no effect, 100 complete control), read-out: Plant response rating, Foxtail, Giant)
10%: pest or weed control at 125 g/ha ([9]; 125 g ai/ha, postemergence, read-out: Plant response rating (0 to 100), Ryegrass, Italian) | pest or weed control at 250 g/ha ([9]; 250 g ai/ha, postemergence, read-out: Plant response rating (0 to 100), Ryegrass, Italian) | plant injury at 125 g/ha ([10]; 125 g ai/ha, postemergence, read-out: Plant response rating (0 to 100), Corn) | plant injury at 250 g/ha ([10]; 250 g ai/ha, postemergence, read-out: Plant response rating (0 to 100), Corn) | Corn plant response rating (crop injury, 0 = no effect, 100 = complete kill) at 62 g/ha [10, 23] | pest or weed control at 250 g/ha ([12]; 250 g ai/ha, postemergence, read-out: Plant response rating (0 to 100), Johnsongrass) | pest or weed control at 250 g/ha ([15]; 250 g ai/ha, postemergence, read-out: Plant response rating (0 to 100), Barnyardgrass) | pest or weed control at 125 g/ha ([18]; 125 g ai/ha, postemergence, read-out: Plant response rating (0 to 100), Oat, Wild)
45%: pest or weed control at 31 g/ha ([11]; Postemergence, 31 g ai/ha, scale 0 to 100 (0 no effect, 100 complete control), 13 to 15 days, read-out: Plant response rating, Foxtail, Giant)
60%: pest or weed control at 31 g/ha ([13]; Postemergence, 31 g ai/ha, scale 0 to 100 (0 no effect, 100 complete control), 13 to 15 days, read-out: Plant response rating, Pigweed) | pest or weed control at 62 g/ha ([13]; Postemergence, 62 g ai/ha, scale 0 to 100 (0 no effect, 100 complete control), read-out: Plant response rating, Pigweed)
100: Plant response rating, Velvetleaf [3, 21]
5%: pest or weed control at 62 g/ha ([9]; Postemergence, 62 g ai/ha, scale 0 to 100 (0 no effect, 100 complete control), read-out: Plant response rating, Ryegrass, Italian) | Corn plant response rating (crop injury, 0 = no effect, 100 = complete kill) at 31 g/ha [10, 22] | pest or weed control at 125 g/ha ([12]; 125 g ai/ha, postemergence, read-out: Plant response rating (0 to 100), Johnsongrass) | pest or weed control at 31 g/ha ([12]; Postemergence, 31 g ai/ha, scale 0 to 100 (0 no effect, 100 complete control), 13 to 15 days, read-out: Plant response rating, Johnsongrass) | pest or weed control at 62 g/ha ([12]; Postemergence, 62 g ai/ha, scale 0 to 100 (0 no effect, 100 complete control), read-out: Plant response rating, Johnsongrass) | pest or weed control at 125 g/ha ([15]; 125 g ai/ha, postemergence, read-out: Plant response rating (0 to 100), Barnyardgrass) | pest or weed control at 62 g/ha ([15]; Postemergence, 62 g ai/ha, scale 0 to 100 (0 no effect, 100 complete control), read-out: Plant response rating, Barnyardgrass) | pest or weed control at 62 g/ha ([18]; Postemergence, 62 g ai/ha, scale 0 to 100 (0 no effect, 100 complete control), read-out: Plant response rating, Oat, Wild)
70%: pest or weed control at 125 g/ha ([11]; 125 g ai/ha, postemergence, read-out: Plant response rating (0 to 100), Foxtail, Giant) | pest or weed control at 250 g/ha ([11]; 250 g ai/ha, postemergence, read-out: Plant response rating (0 to 100), Foxtail, Giant) | pest or weed control at 31 g/ha ([16]; Postemergence, 31 g ai/ha, scale 0 to 100 (0 no effect, 100 complete control), 13 to 15 days, read-out: Plant response rating, Waterhemp) | pest or weed control at 62 g/ha ([16]; Postemergence, 62 g ai/ha, scale 0 to 100 (0 no effect, 100 complete control), read-out: Plant response rating, Waterhemp)
40%: Soybean plant response rating (crop injury, 0-100 scale) at 31 g/ha [14, 22]
15%: pest or weed control at 250 g/ha ([18]; 250 g ai/ha, postemergence, read-out: Plant response rating (0 to 100), Oat, Wild)
90%: pest or weed control at 125 g/ha [4, 19] | Corn plant response rating (crop injury, 0 = no effect, 100 = complete kill) at 125 g/ha [8, 21] | plant injury at 500 g/ha ([8]; 500 g ai/ha, 0 to 100 scale, 0 no effect, 100 complete control, read-out: Plant response rating Corn) | Soybean plant response rating (crop injury, 0-100 scale) at 62 g/ha [14, 23] | pest or weed control at 125 g/ha ([17]; 125 g ai/ha, postemergence, read-out: Plant response rating (0 to 100), Kochia) | pest or weed control at 62 g/ha ([17]; Postemergence, 62 g ai/ha, scale 0 to 100 (0 no effect, 100 complete control), read-out: Plant response rating, Kochia)
95%: pest or weed control at 250 g/ha ([13]; 250 g ai/ha, postemergence, read-out: Plant response rating (0 to 100), Pigweed) | Soybean plant response rating (crop injury, 0-100 scale) at 125 g/ha ([14]; 125 g ai/ha, postemergence, read-out: Plant response rating (0 to 100), Soybean) | Soybean plant response rating (crop injury, 0-100 scale) at 250 g/ha ([14]; 250 g ai/ha, postemergence) | pest or weed control at 250 g/ha ([16]; 250 g ai/ha, postemergence, read-out: Plant response rating (0 to 100), Waterhemp) | pest or weed control at 250 g/ha ([17]; 250 g ai/ha, postemergence, read-out: Plant response rating (0 to 100), Kochia)
75%: pest or weed control at 125 g/ha ([16]; 125 g ai/ha, postemergence, read-out: Plant response rating (0 to 100), Waterhemp) | pest or weed control at 31 g/ha ([17]; Postemergence, 31 g ai/ha, scale 0 to 100 (0 no effect, 100 complete control), 13 to 15 days, read-out: Plant response rating, Kochia)
0%: pest or weed control at 31 g/ha ([9]; Postemergence, 31 g ai/ha, scale 0 to 100 (0 no effect, 100 complete control), 13 to 15 days, read-out: Plant response rating, Ryegrass, Italian) | pest or weed control at 31 g/ha ([15]; Postemergence, 31 g ai/ha, scale 0 to 100 (0 no effect, 100 complete control), 13 to 15 days, read-out: Plant response rating, Barnyardgrass) | pest or weed control at 31 g/ha ([18]; Postemergence, 31 g ai/ha, scale 0 to 100 (0 no effect, 100 complete control), 13 to 15 days, read-out: Plant response rating, Oat, Wild)
